Results as given in US6673793B2, “Oxazinoquinolones useful for the treatment of viral infections” (Pharmacia & Upjohn Co., priority 2000, dated 2004).

Experiments:
CMV polymerase = molecular target: T1, CMV polymerase (Human cytomegalovirus, UniProt P08546); experiment: HCMV polymerase assay, scintillation proximity assay (SPA), modified version; type: biochemical; settings: modified HCMV polymerase SPA assay: compounds diluted in 100% DMSO, 4.5 mM DTT in polymerase buffer, different lot of CMV polymerase; read-out: CMV polymerase IC50
T1 construct: made in house; host or cells: recombinant baculovirus-infected SF-9 cells
How it was run: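 Baculovirus/SF-9-expressed HCMV polymerase in SPA with 90 nM ^3H-dTTP and 6 nM biotinylated poly(dA)-oligo(dT), pH 7.5 HEPES/KCl/MgCl2/BSA, with or without 2 mM CHAPS. Runs 30 min at 25 C. or 37 C., EDTA stop, streptavidin-SPA beads counted; IC50 by linear regression. Modified version: compounds diluted in 100% DMSO rather than 50%, plus 4.5 mM DTT.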

T1 sequence (P08546 whole entry): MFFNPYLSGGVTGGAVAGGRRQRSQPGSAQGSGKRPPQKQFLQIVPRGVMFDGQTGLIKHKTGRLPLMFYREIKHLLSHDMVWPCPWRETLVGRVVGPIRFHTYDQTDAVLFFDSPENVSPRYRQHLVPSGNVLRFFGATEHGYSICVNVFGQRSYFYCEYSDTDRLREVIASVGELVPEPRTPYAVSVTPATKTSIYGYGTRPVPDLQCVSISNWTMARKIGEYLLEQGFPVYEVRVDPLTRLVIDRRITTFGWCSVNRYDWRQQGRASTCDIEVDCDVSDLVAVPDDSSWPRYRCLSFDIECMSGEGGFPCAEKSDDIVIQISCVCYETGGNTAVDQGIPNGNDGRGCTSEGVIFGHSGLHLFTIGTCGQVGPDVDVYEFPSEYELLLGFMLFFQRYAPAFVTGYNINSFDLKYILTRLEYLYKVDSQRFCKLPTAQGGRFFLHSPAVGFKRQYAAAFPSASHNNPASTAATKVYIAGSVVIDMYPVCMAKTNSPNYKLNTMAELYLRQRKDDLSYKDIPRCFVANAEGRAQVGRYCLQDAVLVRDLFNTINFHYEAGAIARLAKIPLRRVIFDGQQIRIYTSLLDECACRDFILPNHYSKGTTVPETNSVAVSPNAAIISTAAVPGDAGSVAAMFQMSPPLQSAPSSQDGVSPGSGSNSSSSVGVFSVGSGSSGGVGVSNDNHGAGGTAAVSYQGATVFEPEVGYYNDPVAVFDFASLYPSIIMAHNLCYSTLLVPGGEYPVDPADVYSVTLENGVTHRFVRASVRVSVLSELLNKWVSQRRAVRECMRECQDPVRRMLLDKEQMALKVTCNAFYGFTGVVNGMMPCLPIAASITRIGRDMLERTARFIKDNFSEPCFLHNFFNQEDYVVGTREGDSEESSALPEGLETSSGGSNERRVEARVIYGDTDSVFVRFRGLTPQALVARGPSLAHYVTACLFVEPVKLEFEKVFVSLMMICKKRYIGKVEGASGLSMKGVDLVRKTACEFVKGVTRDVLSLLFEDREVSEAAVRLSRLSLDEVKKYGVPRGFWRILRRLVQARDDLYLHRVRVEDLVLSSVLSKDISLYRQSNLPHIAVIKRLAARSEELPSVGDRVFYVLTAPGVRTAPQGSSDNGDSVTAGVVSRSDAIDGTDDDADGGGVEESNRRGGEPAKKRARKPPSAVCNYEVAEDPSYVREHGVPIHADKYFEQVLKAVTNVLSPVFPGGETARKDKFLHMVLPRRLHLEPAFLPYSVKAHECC

For O=C(NCc1ccc(Cl)cc1)c1cn2c3c(cc(CN4CCOCC4)cc3c1=O)OC(CNCc1ccncc1)C2 (stereo not drawn) [Example 12, N-(4-Chlorobenzyl)-9-(4-morpholinylmethyl)-7-oxo-2-{[(4-pyridinylmethyl)amino]methyl}-2,3-dihydro-7H-[1,4]oxazino[2,3,4-ij]quinoline-6-carboxamide], the IC50 (CMV polymerase) was 590 nM and the melting point was 164 to 167 °C.
For Cn1ccnc1C1Cn2cc(C(=O)NCc3ccc(Cl)cc3)c(=O)c3cc(CN4CCOCC4)cc(c32)O1 (stereo not drawn) [Example 59, N-(4-Chlorobenzyl)-2-(1-methyl-1H-imidazol-2-yl)-9-(morpholin-4-ylmethyl)-7-oxo-2,3-dihydro-7H-[1,4]oxazino[2,3,4-ij]quinoline-6-carboxamide], the IC50 (CMV polymerase) was 480 nM and the melting point was greater than 260 °C.
In the case of CC(C)(C)SCC1Cn2cc(C(=O)NCc3ccc(Cl)cc3)c(=O)c3cc(CN4CCOCC4)cc(c32)O1 (stereo not drawn) [Example 15, 2-[(tert-Butylsulfanyl)methyl]-N-(4-chlorobenzyl)-9-(4-morpholinylmethyl)-7-oxo-2,3-dihydro-7H-[1,4]oxazino[2,3,4-ij]quinoline-6-carboxamide], the IC50 (CMV polymerase) is reported as 420 nM and the melting point is reported as 198 to 201 °C.
